Assay results reported in US9765101B2, “Organo-arsenoxide compounds and use thereof” (NewSouth Innovations Pty Limited, priority 2006, dated 2017).

Legend:
Assay type in all cases: cell-based, bovine
BAE cells [1] = assay: BAE cell proliferation assay (MTT, 72 h)
Protocol: BAE cells were from Cell Applications, San Diego, Calif. and BxPC-3, HT1080, LLC, PANC-1, MCF-7, HCT116 and K562 cells were from ATCC, Bethesda, Md. NB4 and MDCK2 cells were from Shane Supple (Kanematsu Laboratories, Royal Prince Alfred Hospital, Sydney, Australia) and P. Borst (The Netherlands Cancer Institute, Amsterdam, The Netherlands). BAE, HT1080, Panc-1, MCF-7, HCT116, MDCK2 and LLC cells were cultured in DMEM. NB4, K562 and BxPC-3 cells were cultured in RPMI medium. The cells were supplemented with 10% foetal calf serum (FBS), 2 mM L-glutamine, and 1 U·mL-1 penicillin/streptomycin. Cell culture plasticware was from Techno Plastic Products (Trasadingen, Switzerland). All other cell culture reagents were from Gibco (Gaithersburg, Md.).
Adherent cells were allowed to adhere overnight.

BAE cells [2] = assay: BAE cell proliferation assay, 24, 48 or 72 h (Example 2)
Protocol: Bovine aortic endothelial (BAE) cells were from Cell Application (San Diego, Calif.). BAE cells were cultured in DMEM supplemented with 10% fetal calf serum, 2 mM L-glutamine, and 5 units per mL penicillin and streptomycin (Gibco, Gaithersburg, Md.). Cells were cultured at 37° C. in a 5% CO2, 95% air atmosphere. BAE cells were seeded in 96-well plates (5,000 cells per well) in 0.2 ml of culture medium. After 24 h of growth, the medium was replaced with fresh culture medium supplemented with GSAO, CAO or 4H10 and cells were cultured for an additional 24, 48 or 72 h. Viable attached cells were determined using the tetrazolium salt MTT (Sigma, St. Louis, Mo.) according to the manufacturer's protocol. Results were expressed as percentage of untreated controls.

BAE cells [3] = assay: Accumulation of GSAO and CAO in BAE cells (ICPMS)
Protocol: (§1) Depending on the type of experiments, 1.6×10^6 or 7.5×10^5 BAE cells were seeded in petri dishes or 6-well-plates, respectively, and allowed to attach overnight. The medium was replaced and the cells were incubated for 30 min in the absence or presence of acivicin or 4H10. The cells were then incubated with 50 or 100 μM GSAO or CAO […] for 4 h. Cells were then washed twice with ice-cold PBS and lysed with 1 ml of 70% w/w nitric acid.

[4] = target: T1, multidrug resistance associated protein 1 (MRP-1) (Bos taurus, UniProt Q8HXQ5); assay: Accumulation in BAE cells with MRP-1 inhibitor 4H10
T1 construct: host or cells: BAE (bovine aortic endothelial) cells
T1 sequence (Q8HXQ5 whole entry): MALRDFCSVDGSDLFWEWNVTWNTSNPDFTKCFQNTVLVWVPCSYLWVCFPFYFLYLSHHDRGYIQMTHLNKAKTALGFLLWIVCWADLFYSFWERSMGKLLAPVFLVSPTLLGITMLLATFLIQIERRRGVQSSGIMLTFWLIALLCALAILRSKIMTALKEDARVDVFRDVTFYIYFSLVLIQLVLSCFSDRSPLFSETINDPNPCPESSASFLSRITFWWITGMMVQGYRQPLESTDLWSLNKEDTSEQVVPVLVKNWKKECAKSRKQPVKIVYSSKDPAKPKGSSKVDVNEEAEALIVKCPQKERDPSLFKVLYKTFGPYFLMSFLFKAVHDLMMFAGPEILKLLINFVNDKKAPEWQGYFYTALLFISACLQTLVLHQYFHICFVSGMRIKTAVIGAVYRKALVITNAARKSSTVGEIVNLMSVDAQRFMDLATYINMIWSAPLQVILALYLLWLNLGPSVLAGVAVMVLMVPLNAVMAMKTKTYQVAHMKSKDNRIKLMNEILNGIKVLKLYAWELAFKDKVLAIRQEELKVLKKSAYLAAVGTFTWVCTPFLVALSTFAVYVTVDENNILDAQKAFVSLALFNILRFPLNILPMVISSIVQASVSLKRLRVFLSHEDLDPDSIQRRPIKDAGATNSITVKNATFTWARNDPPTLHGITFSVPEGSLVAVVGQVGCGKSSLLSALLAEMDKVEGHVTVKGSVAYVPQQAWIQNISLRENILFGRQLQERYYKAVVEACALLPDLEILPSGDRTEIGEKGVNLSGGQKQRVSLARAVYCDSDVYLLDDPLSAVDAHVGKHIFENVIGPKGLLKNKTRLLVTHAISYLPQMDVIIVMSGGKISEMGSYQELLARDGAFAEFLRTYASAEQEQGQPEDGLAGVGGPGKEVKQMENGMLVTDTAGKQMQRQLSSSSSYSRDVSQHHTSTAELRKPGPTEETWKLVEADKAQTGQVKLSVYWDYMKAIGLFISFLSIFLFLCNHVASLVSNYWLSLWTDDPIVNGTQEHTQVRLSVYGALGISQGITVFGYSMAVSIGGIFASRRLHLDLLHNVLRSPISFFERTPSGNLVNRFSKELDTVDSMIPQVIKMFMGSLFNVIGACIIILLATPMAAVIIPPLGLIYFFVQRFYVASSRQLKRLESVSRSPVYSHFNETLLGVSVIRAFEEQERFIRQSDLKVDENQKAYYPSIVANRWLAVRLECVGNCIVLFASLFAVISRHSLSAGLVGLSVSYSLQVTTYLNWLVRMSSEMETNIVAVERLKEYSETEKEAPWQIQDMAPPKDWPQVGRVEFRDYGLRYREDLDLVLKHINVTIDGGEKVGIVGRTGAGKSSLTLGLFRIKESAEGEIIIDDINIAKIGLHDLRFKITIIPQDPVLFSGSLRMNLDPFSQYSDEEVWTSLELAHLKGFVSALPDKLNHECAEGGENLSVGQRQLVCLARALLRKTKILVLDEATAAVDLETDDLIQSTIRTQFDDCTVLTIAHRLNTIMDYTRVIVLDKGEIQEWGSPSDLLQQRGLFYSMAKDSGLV
Protocol: FIG. 16. […] A. CAO accumulates in cells at a much faster rate than GSAO. BAE cells were incubated with 50 μM GSAO or CAO for 4 h. Cellular arsenic levels were determined by ICPMS. The rates of accumulation are GSAO and CAO are 0.03 and 0.20 nmol As atoms per 10^6 cells, respectively. Data points are the mean±SD of three determinations. The results are representative of two experiments. […] BAE cells pretreated for 30 min with 10 μM of the MRP-1 inhibitor 4H10 were incubated with 50 μM GSAO or CAO for 2 h. Cellular arsenic levels were determined by ICPMS. Data points are the mean±SD of three determinations. The results are representative of two experiments. C. GSAO and CAO IC50 values for proliferation arrest of endothelial cells. BAE cells were incubated with 0.8-100 μM GSAO or CAO for 24, 48 or 72 h. Cell viability was determined using MTT. Results are expressed as percentage of control. Values are mean±SD of triplicate determinations. Results are representative of three experiments.
as §1, with “Cells were then washed twice with ice-cold PBS and lysed with 1 ml of 70% w/w nitric acid.” left out

| Structure (SMILES) | effect on proliferation of BAE cells (BAE cells [1]) | anti-proliferative activity compared to GSAO (BAE cells [2]) | rate of accumulation in endothelial cells, fold faster than GSAO (BAE cells [3]) [fold] | rate of accumulation (BAE cells [3]; 50 μM, 4 h) | export by multidrug resistance associated protein 1 [4] | increase of cellular accumulation when MRP-1 was inhibited ([4]; 10 μM 4H10 30 min, then 50 μM compound 2 h) [fold] |
| --- | --- | --- | --- | --- | --- | --- |
| CC(C)(SCC(=O)Nc1ccc([As](=O)(O)O)cc1)[C@@H](N)C(=O)O [(S)-Penicillamine-arsenonic acid, reference compound] | no effect on proliferation |  |  |  |  |  |
| NC(CSCC(=O)Nc1ccc([As](O)O)cc1)C(=O)O (stereo not drawn) [CAO, 4-(N—(S-cysteinylacetyl)amino)-phenylarsinous acid] |  | greater anti-proliferative activity than GSAO | ~8 | 0.20 nmol As atoms per 10^6 cells | exported from cells by the multidrug resistance associated protein 1 | ~3 |
